Assay results taken from US20180280504A1, “GLYCAN-INTERACTING COMPOUNDS AND METHODS OF USE” (SIAMAB THERAPEUTICS, INC., priority 2014, published 2018).
Blank lines part the entries; values can stand above or below the molecule they belong to.

Experiments:
[1] = E3-STn allograft model, average weight of mice; format: in vivo, mouse
Procedure: Balb/c mice were used as part of the test system. 50 female mice were inoculated with E3-STn cells to cause STn-expressing tumor formation. Mice were maintained under pathogen-free conditions with irradiated feed and autoclaved water.
The average weight of mice in each treatment group was also determined on days 1, 4, 6, 8, 11, 13, 15, 18, 20, 22, 26, 27, 29, 32, 34, 36, 39 and 41 following the first administration of each test article (see the following Table). The percent gain or loss over initial weight values is listed in parentheses.

[2] = PAA-glycan ELISA, GcSTn-PAA; format: binding; conditions: 200 ng/well PAA antigen; 1:5 dilutions from 1 μM
Procedure: (§1) 18D2 and 18C7 antibodies were further characterized by ELISA comprising antigens other than BSM. ELISAs were carried out according to Example 2, with the exception that ELISA plates were coated with biotinylated polyacrylamide (PAA) particles comprising either AcSTn (AcSTn-PAA), GcSTn (GcSTn-PAA) or Tn (Tn-PAA) as antigens. These particles present the antigens in a multivalent format. Briefly, 96-well ELISA plates were coated with 200 ng/well of each PAA antigen and blocked with PBS with 1% OVA. Antibodies were serially diluted at 1:5 in PBS with 1% OVA using an initial concentration of 1 μM. After blocking, antibodies were added to the plates and plates were incubated for 1.5 hours at room temperature. Binding of anti-STn antibodies was detected using a goat anti-mouse IgG-HRP conjugated antibody (Jackson Immunoresearch Laboratories, West Grove, Pa.). The reaction was developed by addition of HRP substrate and hydrogen peroxide. The reaction was then stopped by the addition of sulfuric acid (1.6 M). Optical densities were measured at 490 nm. A dose-response curve was generated using readings at each concentration tested and a non-linear regression curve was generated with four-parameter modeling to determine EC50 values for each antibody.

[3] = system: ST6GalNAc 1 transfected MDA-MB-231 cells (MDA-STn+); assay: Flow cytometry-based analysis of antibody binding, STn+ cells; design: species or system human; conditions: ST6GalNAc 1 transfected MDA-MB-231 cells; APC anti-mouse IgG
Procedure: Flow cytometry-based analysis is carried out to elucidate the curve-dose response for binding of antibodies to cell surface antigens. For these analyses, three cell lines are employed.
MDA-MB-231 cells are human breast cancer cells. They are grown in Earle's Minimum Essential Medium supplemented with 10% fetal calf serum (FCS), 100 μg/ml penicillin, 100 UI/ml streptomycin and 45 μg/ml gentamycin. MCF-7 cells are also human breast cancer cells and are grown under the same conditions as MDA-MB-231 cells. Stably transfected versions of MDA-MB-231 and MCF-7 cells (clone TAH3.P10 for MDA-MB-231 cells and clone A12.1 for MCF-7 cells) that over express GalNAc α2,6-sialyltransferase (ST6GalNAc 1,) are also cultured under the same conditions with the exception of an added 1 mg/ml of G418 to support cells expressing the transgene. ST6GalNAc 1 is an enzme capable of sialylating GalNAc. As a result of over expression, transfected cells express high levels of Neu5Ac-STn (see Julien, S. et al., Glycoconjugate journal. 2001. 18, 883-93; the contents of which are herein incorporated by reference in their entirety). E3 cells are murine breast cancer cells. They are cultured in Dulbecco's E4 medium with 10% FCS. Stably transfected versions of E3 cells expressing high levels of Neu5Gc-STn (E3-STn) are cultured with 600 μg/ml of G418 and 200 μg/ml hygromycin. During growth and maintenance of experimental cells, trypsin is not used for cell passaging.
For analysis, cells are harvested using StemPro Accutase (Life Technologies, Carlsbad, Calif.) and washed with PBS comprising 5% FBS before pelleting by light centrifugation. Cell numbers and viability are determined by trypan blue dye exclusion analysis and cell concentrations are adjusted to 5×10^6 cells/ml in PBS with 5% FBS. 50 μl of cells are added to each well of an assay plate. Cells are combined with 50 μl solutions of antibody being analyzed or control antibodies and incubated for 1 hour at 4° C. Cells are washed and pelleted twice with PBS with 5% FBS before being treated with 100 μl of PBS with 5% FBS comprising a 1:1,500 dilution of anti-mouse IgG (Southern Biotech, Birmingham, Ala.,) conjugated to allophycocyanin (APC). Cells are incubated for 30 min at 4° C. before washing and resuspending in 200 μl of propidium iodide (PI) diluted 1:1000 in PBS with 5% FBS. Treated cells are then subjects to flow cytometry analysis and 10,000 events are acquired for each sample.

[4] = PAA-glycan ELISA, AcSTn-PAA; format: binding; conditions: 200 ng/well PAA antigen; 1:5 dilutions from 1 μM
Procedure: as §1

Average Weight ([1]; day 1 of study): 16.7 g
Average Weight ([1]; day 4 of study): 16.5 g
Average Weight ([1]; day 6 of study): 17 g
Average Weight ([1]; day 8 of study): 17.3 g
Average Weight ([1]; day 11 of study): 17.1 g
Average Weight ([1]; day 13 of study): 17.4 g
Average Weight ([1]; day 15 of study): 17.8 g
Average Weight ([1]; day 18 of study): 17.6 g
Average Weight ([1]; day 20 of study): 17.8 g
Average Weight ([1]; day 22 of study): 17.9 g
Average Weight ([1]; day 26 of study): 18.3 g
Average Weight ([1]; day 27 of study): 18.5 g
Average Weight ([1]; day 29 of study): 18.9 g
Average Weight ([1]; day 32 of study): 18.9 g
Average Weight ([1]; day 34 of study): 19.2 g
Average Weight ([1]; day 36 of study): 18.5 g
Average Weight ([1]; day 39 of study): 19.1 g
Average Weight ([1]; day 41 of study): 19.2 g
Molecule: CC(=O)O[C@H]1C(=O)[C@@]2(C)[C@H]([C@H](OC(=O)c3ccccc3)[C@]3(O)C[C@H](OC(=O)[C@H](O)[C@@H](NC(=O)c4ccccc4)c4ccccc4)C(C)=C1C3(C)C)[C@]1(OC(C)=O)CO[C@@H]1C[C@@H]2O [Paclitaxel, reference compound]

EC50 [2]: 73.2 nM
EC50, flow cytometry binding to cell-associated STn [3]: 2.42 nM
EC50 [4]: 152 nM
B1: 3F1: commercially available mouse anti-STn monoclonal antibody (SBH Sciences), IgG1; VH SEQ ID NO: 59, VL SEQ ID NO: 60 (antibody, V domains shown)
VH: QVQLQQSDAELVKPGASVKISCKASGYTFTDHAIHWVKQKPEQGLDWIGYISPGNGDIKYNEKFKDKVTLTADKSSSTACMHLNSLTSEDSAVYFCKRSLLALDYWGQGTTLTVSS
VL: DIVMTQSHKFMSTSVGDRVSITCKASQDVGTNIAWYQQKPGRSPKVLIYSASTRHTGVPDRFTGSGSGTDFTLTISNVQSEDLTDYFCQQYSSFPLTFGVGTKLELK
